The subject of data set [1] is MA-10 mouse Leydig tumor cells. In words: MTT cell viability, MA-10 cells. The format is cell-based. The method, then: Cell viability at the end of the incubation protocol described above was assessed using the mitochondrial integrity 3-(4,5-dimethylthiazol-2-yl)-2,5-diphenyl tetrazolium bromide (MTT) assay (Trevigen, Gaithersburg, Md.). Briefly, 10 l of the MTT solution were added to the cells in 100 l medium. After an incubation period of 4 hours, 100 l of detergent were added and cells were incubated overnight at 37° C. Formazan blue formation was quantified at 600 nm and 690 nm using the Victor quantitative detection spectrophotometer (EGG-Wallac, Gaithersburg, Md.) and the results expressed as (OD600-OD690).

A further data set deals with HMG-CoA reductase mRNA. The data set can be described thus: HMG-CoA reductase mRNA expression by Q-PCR in Y1 cells. The format is cell-based, mouse. The following applies: for dbcAMP-induced HMG-CoA reductase mRNA levels: Y1 cells, 24 hours pretreatment, dbcAMP 24 hours. The method, then:
After treatment, cells were stimulated with 1 mM dbcAMP for 24 hours. At the end of the incubation, total cell RNA was extracted using. RNA STAT-60 (Tel-Test Inc, Friendswood, Tex.) according to the manufacturer's instructions. HMG-CoA reductase mRNA was quantified by Q-PCR using the ABI Prism 7700 sequence detection system (Perlin-Elmer/Applied Biosystems, Foster City, Calif.). RT reaction was performed using TaqMan® Reverse Transcription Reagents with 1 g total RNA and random hexamers as primers for each reaction according to the manufacturer's instructions. For quantifying mouse HMG-CoA reductase mRNA with Q-PCR, the primers were designed according to GenBank Accession Number BC 019782 using PE/AB Primer Express software, which is specifically designed for the selection of primers and probes. The forward primer was 5′-[…]-3′ (22 nucleotides) and reverse primer was 5′-[…]-3′ (23 nucleotides), respectively. The primers were synthesized by Bio-Synthesis Inc. (Lewisville, Tex.). Reactions were performed in a reaction mixture consisting of a 20 l volume solution containing 10 l SYBR® Green PCR Master Mix and 1 l primers mix (5 M each) with 2 l cDNA.

The next data set deals with T1, cytochrome P-450SCC (Mus musculus, UniProt Q9QZ82).
T1 construct: endogenous in cells; host or cells: Y1 mouse adrenal tumor cells
T1 sequence (Q9QZ82 37-526): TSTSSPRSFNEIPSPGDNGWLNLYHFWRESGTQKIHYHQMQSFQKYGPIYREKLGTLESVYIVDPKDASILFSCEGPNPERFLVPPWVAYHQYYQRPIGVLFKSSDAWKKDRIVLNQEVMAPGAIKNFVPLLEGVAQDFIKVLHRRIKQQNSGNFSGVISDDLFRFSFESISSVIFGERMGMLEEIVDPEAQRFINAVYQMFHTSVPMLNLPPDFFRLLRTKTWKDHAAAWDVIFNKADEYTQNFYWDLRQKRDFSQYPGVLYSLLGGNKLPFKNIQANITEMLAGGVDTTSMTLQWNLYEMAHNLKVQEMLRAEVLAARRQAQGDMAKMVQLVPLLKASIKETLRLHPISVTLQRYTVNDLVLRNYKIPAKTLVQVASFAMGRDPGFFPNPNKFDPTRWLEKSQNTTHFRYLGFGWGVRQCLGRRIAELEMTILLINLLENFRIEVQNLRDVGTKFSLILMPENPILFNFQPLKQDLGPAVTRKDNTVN
In words: 22R-hydroxycholesterol-induced 20-OH progesterone formation (P-450SCC activity) in Y1 cells. The format is cell-based. The method, then:
Culture media were then changed and cells were stimulated with 1 mM dbcAMP and the treatment for 24 to 48 hours. […] The synthesis of 20-OH progesterone and progesterone in Y1 and MA-10 cell media respectively were measured by RIA (Brown et al., 1992). H295R human adrenal tumor cells were seeded in 48-well plates at 10^5 cells/well and incubated for 24 hours. […] At the end of the incubation time period, cells were treated with 1 mM dbcAMP for 48 hours. Cortisol levels in the media were determined by radioimmunoassay as previously described (Amri et al., 1996).

The next data set relates to HMG-CoA reductase. The data set can be described thus: HMG-CoA reductase activity in treated Y1 cells. Conditions: increasing concentrations. The format is cell-based, mouse. The method, then: Cells were washed twice with ice-cold PBS and incubated with ice-cold assay buffer (0.1M sucrose, 40 mM KH2PO4, 30 mM EDTA, 50 mM KCl, 5 mM DTT, 0.25% (v/v) of Brij 96, at pH 7.4) on ice for 20 minutes. After centrifugation for 3 minutes at 14000 g (4° C.) the supernatants were collected and used for HMG-CoA reductase activity assay. The total 150 l assay mixture contained 100-200 g protein and the NADPH-generating system (2.5 mM NADP, 20 mM glucose 6-phosphate and 20 U/ml glucose 6-phosphate dehydrogenase). The reaction was started by adding substrate (^14C-HMG-CoA, 0.1 Ci) and stopped after 45 minutes by adding 10-1 of HCl 6M. ^3H-mevalonolactone was also added to the samples as an extraction recovery marker. After an additional 30 minutes incubation time, to allow complete lactonization of the product, the mixture was centrifuged. The supernatant was applied to Bond-Elut NH2 column and eluted with 1 ml of toluene/acetone (3:1). The eluate was discarded and further 4 ml of toluene/acetone was applied to the column and collected in a scintillation vial for counting ^14C-mevalonate and 3H-mevalonolactone signals (Berkhout et al., 1990).

A further data set deals with PKA. The data set can be described thus: dbcAMP-stimulated PKA activity in Y1 cells (PepTag assay). The class given is cell-based, mouse. Details: dose or concentration left out as unconfirmed. As for the experimental part:
Y1 cells were cultured in 6-well plates (2×10^5 cells per well) and treated as described above for steroid biosynthesis. At the end of the incubation, cells were washed twice with PBS and proteins were extracted using an extraction buffer (25 mM tris-HCl pH 7.4, 0.5 mM EDTA, 0.5 mM EGTA, 10 mM-mercaptoethanol, 0.5 mM PMSF, 1 g/ml leupeptin, and 1 g/ml aprotinin). After centrifugation at 18,500 g for 15 minutes, the supernatants were kept for PKA activity assay. Samples were processed using the PepTag assay for non-radioactive detection of PKA activity following the manufacturer's recommendations (Promega Corporation, Madison, Wis.).

Molecules are shown by their SMILES. Entries after “also recorded” stand apart in the source; their conditions may differ.

Turning to `CCN(CC)CCOC(=O)c1ccc(N)cc1` [procaine], in data set [1], the “cell viability (MTT assay)” value is “did not affect”. For the same molecule, the “dbcAMP-induced HMG-CoA reductase mRNA levels” value with HMG-CoA reductase mRNA is reported as “reduced in a dose-dependent manner”; with HMG-CoA reductase mRNA (listed as Procaine), “inhibited in a dose-dependent manner”. In addition, the “basal HMG-CoA mRNA levels” value in the data set with HMG-CoA reductase mRNA (no dbcAMP) is “without affecting”. Also, the “effect of 22R-hydroxycholesterol on steroidogenesis” value on cytochrome P-450SCC is recorded as “did not inhibit; also recorded: did not affect”. For the same molecule, in the data set with HMG-CoA reductase, the “HMG-CoA reductase activity in treated cells” value was “reduced in a dose-dependent manner”. Also, the “dbcAMP-stimulated PKA activity” value in the data set on PKA is listed as “did not affect”.

Source of the values: patent US20060194815A1, “Methods and compositions for modulating serum cortisol levels” (priority 2003, published 2006).
